Like-named read-outs stand apart in the source and are kept apart here.
Assays:
[1] = system: colorectal cancer cell lines (e.g. DLD-1, HCT 116, SW620, HCT-15, HCT-8, RKO); assay: Cell based assay, cell viability (CellTiter-Glo), colorectal cancer cell lines
Procedure, shortened: (§1)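 Plated cells (24 h) → compound to 0–2 μM final → 72 h → CellTiter-Glo ATP luminescence.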

neuroblastoma cell lines = assay: Cell based assay, cell viability (CellTiter-Glo), neuroblastoma cell lines; conditions: Homo sapiens; SH-SY5Y cell line
Procedure, shortened: as §1

melanoma cell lines = assay: Cell based assay, cell viability (CellTiter-Glo), melanoma cell lines; conditions: Homo sapiens; LOX-IMVI cell line
Procedure, shortened: as §1

[2] = Homo sapiens, DLD-1, 72 hours treatment, read-out: IC50, colorectal cancer cell line DLD-1
[3] = Homo sapiens, HCT 116, 72 hours treatment, read-out: IC50, colorectal cancer cell line HCT 116
[4] = Homo sapiens, HCT-8, 72 hours treatment, read-out: IC50, colorectal cancer cell line HCT-8
[5] = Homo sapiens, HCT-15, 72 hours treatment, read-out: IC50, colorectal cancer cell line HCT-15
[6] = Homo sapiens, HT-29, 72 hours treatment, read-out: IC50, colorectal cancer cell line HT-29
[7] = Homo sapiens, LoVo, 72 hours treatment, read-out: IC50, colorectal cancer cell line LoVo
[8] = Homo sapiens, SW480, 72 hours treatment, read-out: IC50, colorectal cancer cell line SW480
[9] = Homo sapiens, SW-620, SW620, 72 hours treatment, read-out: IC50, colorectal cancer cell line SW620
[10] = RKO, 72 hours treatment, read-out: IC50, colorectal cancer cell line RKO
[11] = Homo sapiens, DLD-1 cells, 72 hours treatment, read-out: IC50, colorectal cancer cell line DLD-1
[12] = Homo sapiens, HCT 116 cells, 72 hours treatment, read-out: IC50, colorectal cancer cell line HCT 116
[13] = Homo sapiens, HCT-8 cells, 72 hours treatment, read-out: IC50, colorectal cancer cell line HCT-8
[14] = Homo sapiens, HCT-15 cells, 72 hours treatment, read-out: IC50, colorectal cancer cell line HCT-15
[15] = Homo sapiens, HT-29 cells, 72 hours treatment, read-out: IC50, colorectal cancer cell line HT-29
[16] = Homo sapiens, LoVo cells, 72 hours treatment, read-out: IC50, colorectal cancer cell line LoVo
[17] = Homo sapiens, RKO cells, 72 hours treatment, read-out: IC50, colorectal cancer cell line RKO
[18] = Homo sapiens, SW480 cells, 72 hours treatment, read-out: IC50, colorectal cancer cell line SW480
[19] = Homo sapiens, SW-620, SW620 cells, 72 hours treatment, read-out: IC50, colorectal cancer cell line SW620

IC50 [1, 2] [nM] | IC50 [1, 3] [nM] | IC50 [1, 4] [nM] | IC50 [1, 5] [nM] | IC50 [1, 6] [nM] | IC50 [1, 7] [nM] | IC50 [1, 8] [nM] | IC50 [1, 9] [nM] | IC50 [1, 10] [nM] | IC50 (neuroblastoma cell lines) [nM] | IC50 (melanoma cell lines) [nM] | IC50 [1, 11] [nM] | IC50 [1, 12] [nM] | IC50 [1, 13] [nM] | IC50 [1, 14] [nM] | IC50 [1, 15] [nM] | IC50 [1, 16] [nM] | IC50 [1, 17] [nM] | IC50 [1, 18] [nM] | IC50 [1, 19] [nM] | Compound
700 | 1480 | > 2000 | 1700 | > 10000 | > 2000 | > 2000 | 1550 | 1840 | > 2000 | 1350 |  |  |  |  |  |  |  |  |  | CC(=O)c1c([S+](C)[O-])[nH]c2c(Cl)ccc(Cl)c2c1=O (stereo not drawn) [Compound 6, 3-acetyl-5,8-dichloro-2-(methylsulfinyl)quinolin-4(1H)-one]
> 2000 | > 2000 | > 2000 | > 2000 | > 10000 | > 2000 | > 2000 | > 2000 | > 2000 | > 2000 | > 2000 |  |  |  |  |  |  |  |  |  | CC(=O)c1c([S+]([O-])Cc2ccc(S(F)(F)(F)(F)F)cc2)[nH]c2c(F)ccc(F)c2c1=O (stereo not drawn) [Compound 80, 3-acetyl-5,8-difluoro-2-((4-(pentafluoro--sulfanyl)benzyl)sulfinyl)quinolin-4(1H)-one]
> 2000 | > 2000 | > 2000 | > 2000 | > 10000 | > 2000 | > 2000 | > 2000 | > 2000 | > 2000 | > 2000 |  |  |  |  |  |  |  |  |  | CC(=O)c1c(SCc2ccc(F)c(Cl)c2)[nH]c2c(Br)ccc(Cl)c2c1=O [Compound 30, 3-acetyl-8-bromo-5-chloro-2-((3-chloro-4-fluorobenzyl)thio)quinolin-4(1H)-one]
870 | 1050 | 1750 | 1240 | > 10000 | > 2000 | 1280 | 1360 | 1930 | > 2000 | 1050 |  |  |  |  |  |  |  |  |  | CC(=O)c1c([S+](C)[O-])n(C(=O)c2ccc(Br)cc2)c2c(Br)ccc(Cl)c2c1=O (stereo not drawn) [Compound 9, 3-acetyl-8-bromo-1-(4-bromobenzoyl)-5-chloro-2-(methylsulfinyl)quinolin-4(1H)-one]
> 2000 | > 2000 | > 2000 | > 2000 | > 10000 | > 2000 | > 2000 | > 2000 | > 2000 | > 2000 | > 2000 |  |  |  |  |  |  |  |  |  | CC(=O)c1c(Sc2ccc(Br)cc2)[nH]c2c(Br)ccc(Cl)c2c1=O [Compound 16, 3-acetyl-8-bromo-2-((4-bromophenyl)thio)-5-chloroquinolin-4(1H)-one]
> 2000 | > 2000 | > 2000 | > 2000 | > 10000 | > 2000 | > 2000 | > 2000 | 1790 | > 2000 | > 2000 |  |  |  |  |  |  |  |  |  | CC(=O)c1c([S+]([O-])C(C)c2ccccc2)[nH]c2c(Br)ccc(Cl)c2c1=O (stereo not drawn) [Compound 26, 3-acetyl-8-bromo-5-chloro-2-((1-phenylethyl)sulfinyl)quinolin-4(1H)-one]
> 2000 | > 2000 | > 2000 | > 2000 | > 10000 | > 2000 | > 2000 | > 2000 | > 2000 | > 2000 | > 2000 |  |  |  |  |  |  |  |  |  | CC(=O)c1c([S+]([O-])c2ccccc2)[nH]c2c(Br)ccc(Cl)c2c1=O (stereo not drawn) [Compound 13, 3-acetyl-8-bromo-5-chloro-2-(phenylsulfinyl)quinolin-4(1H)-one]
 |  |  |  |  |  |  |  |  | > 2000 | > 2000 | > 2000 | > 2000 | > 2000 | > 2000 | > 10000 | > 2000 | > 2000 | > 2000 | > 2000 | CC(C)C(=O)c1c([S+]([O-])Cc2ccc(SC(F)(F)F)cc2)[nH]c2c(F)ccc(F)c2c1=O (stereo not drawn) [Compound 85, 5,8-difluoro-3-isobutyryl-2-((4-((trifluoromethyl)thio)benzyl)sulfinyl)quinolin-4(1H)-one]
> 2000 | > 2000 | > 2000 | > 2000 | > 10000 | > 2000 | > 2000 | > 2000 | > 2000 | > 2000 | > 2000 |  |  |  |  |  |  |  |  |  | COc1ccccc1Sc1[nH]c2c(Br)ccc(Cl)c2c(=O)c1C(C)=O [Compound 14, 3-acetyl-8-bromo-5-chloro-2-((2-methoxyphenyl)thio)quinolin-4(1H)-one]
 |  |  |  |  |  |  |  |  | > 2000 | > 2000 | > 2000 | > 2000 | > 2000 | > 2000 | > 10000 | > 2000 | > 2000 | > 2000 | > 2000 | CC(=O)c1c([S+]([O-])CN2C(=O)c3ccccc3C2=O)[nH]c2c(Cl)ccc(Cl)c2c1=O (stereo not drawn) [Compound 90, 2-(((3-acetyl-5,8-dichloro-4-oxo-1,4-dihydroquinolin-2-yl)sulfinyl)methyl)isoindoline-1,3-dione]
 |  |  |  |  |  |  |  |  | 450 | 870 | 870 | 820 | 980 | 970 | > 10000 | 1450 | 950 | 1300 | 920 | CC(=O)c1c([S+]([O-])Cc2ccc(-n3cccn3)nc2)[nH]c2c(Br)ccc(Cl)c2c1=O (stereo not drawn) [Compound 99, 2-(((6-(1H-pyrazol-1-yl)pyridin-3-yl)methyl)sulfinyl)-3-acetyl-8-bromo-5-chloroquinolin-4(1H)-one]
820 | > 2000 | > 2000 | > 2000 | > 10000 | > 2000 | > 2000 | > 2000 | > 2000 | > 2000 | > 2000 |  |  |  |  |  |  |  |  |  | CC(=O)c1c([S+]([O-])Cc2ccc(Cl)cc2)[nH]c2c(Br)ccc(Cl)c2c1=O (stereo not drawn) [Compound 11, 3-acetyl-8-bromo-5-chloro-2-((4-chlorobenzyl)sulfinyl)quinolin-4(1H)-one]
> 2000 | > 2000 | > 2000 | > 2000 | > 10000 | > 2000 | > 2000 | > 2000 | > 2000 | > 2000 | > 2000 |  |  |  |  |  |  |  |  |  | CC(=O)c1c([S+]([O-])Cc2ccc(SC(F)(F)F)cc2)[nH]c2c(Cl)ccc(Cl)c2c1=O (stereo not drawn) [Compound 79, 3-acetyl-5,8-dichloro-2-((4-((trifluoromethyl)thio)benzyl)sulfinyl)quinolin-4(1H)-one]
> 2000 | > 2000 | > 2000 | > 2000 | > 10000 | > 2000 | > 2000 | > 2000 | > 2000 | > 2000 | > 2000 |  |  |  |  |  |  |  |  |  | CSc1c(C(C)=O)c(=O)c2c(Cl)ccc(Br)c2n1S(C)(=O)=O [Compound 35, 3-acetyl-8-bromo-5-chloro-1-(methylsulfonyl)-2-(methylthio)quinolin-4(1H)-one]
 |  |  |  |  |  |  |  |  | 600 | 880 | 1240 | 1320 | 1290 | 1490 | > 10000 | > 2000 | 1150 | 1580 | 1360 | CC(=O)c1c([S+]([O-])Cc2ccc(Cl)nc2)[nH]c2c(Br)ccc(Cl)c2c1=O (stereo not drawn) [Compound 104, 3-acetyl-8-bromo-5-chloro-2-(((6-chloropyridin-3-yl)methyl)sulfinyl)quinolin-4(1H)-one]
 |  |  |  |  |  |  |  |  | > 2000 | > 2000 | > 2000 | > 2000 | > 2000 | > 2000 | > 10000 | > 2000 | > 2000 | > 2000 | > 2000 | COc1cccc2[nH]c([S+]([O-])Cc3ccc(S(F)(F)(F)(F)F)cc3)c(C(C)=O)c(=O)c12 (stereo not drawn) [Compound 93, 3-acetyl-5-methoxy-2-((4-(pentafluoro--sulfanyl)benzyl)sulfinyl)quinolin-4(1H)-one]
> 2000 | > 2000 | > 2000 | > 2000 | > 10000 | > 2000 | > 2000 | > 2000 | > 2000 | > 2000 | > 2000 |  |  |  |  |  |  |  |  |  | CC(=O)c1c(S)[nH]c2c(Br)ccc(Cl)c2c1=O [Compound 62, 3-acetyl-8-bromo-5-chloro-2-mercaptoquinolin-4(1H)-one]
> 2000 | > 2000 | > 2000 | > 2000 | > 10000 | > 2000 | > 2000 | > 2000 | > 2000 | > 2000 | > 2000 |  |  |  |  |  |  |  |  |  | CC(=O)c1c(SCc2cc(Cl)ccc2Cl)[nH]c2c(Br)ccc(Cl)c2c1=O [Compound 43, 3-acetyl-8-bromo-5-chloro-2-((2,5-dichlorobenzyl)thio)quinolin-4(1H)-one]
770 | 1090 | 1350 | 1100 | > 10000 | 2020 | 1220 | 1160 | 1120 | > 2000 | 880 |  |  |  |  |  |  |  |  |  | CC(=O)c1c([S+]([O-])Cc2ccccc2C#N)[nH]c2c(Br)ccc(Cl)c2c1=O (stereo not drawn) [Compound 58, 2-(((3-acetyl-8-bromo-5-chloro-4-oxo-1,4-dihydroquinolin-2-yl)sulfinyl)methyl)benzonitrile]
 |  |  |  |  |  |  |  |  | 1290 | > 2000 | > 2000 | > 2000 | > 2000 | > 2000 | > 10000 | > 2000 | > 2000 | > 2000 | > 2000 | CC(=O)c1c([S+]([O-])Cc2nonc2C)[nH]c2c(Br)ccc(Cl)c2c1=O (stereo not drawn) [Compound 106, 3-acetyl-8-bromo-5-chloro-2-(((4-methyl-1,2,5-oxadiazol-3-yl)methyl)sulfinyl)quinolin-4(1H)-one]
780 | 1090 | 1300 | 980 | > 2000 | > 2000 | 1750 | 1660 | 1330 | > 2000 | 960 |  |  |  |  |  |  |  |  |  | CC(=O)c1c([S+]([O-])Cc2ccc(S(F)(F)(F)(F)F)cc2)[nH]c2c(Br)ccc(Cl)c2c1=O (stereo not drawn) [Compound 68, 3-acetyl-8-bromo-5-chloro-2-((4-(pentafluoro-16-sulfanyl)benzyl)sulfinyl)quinolin-4(1H)-one]

Source: patent US11464770B2, “Anticancer pharmaceutical composition” (NATIONAL CANCER CENTER, priority 2016, dated 2022)
